Key:
human CCR-2 [1] = target: T1, human CCR-2 (Homo sapiens, UniProt P41597); assay: CCR-2 chemotaxis, MCP-1-induced, THP-1 cells; type: cell-based
T1 sequence (P41597 1-360 isoform P41597-2): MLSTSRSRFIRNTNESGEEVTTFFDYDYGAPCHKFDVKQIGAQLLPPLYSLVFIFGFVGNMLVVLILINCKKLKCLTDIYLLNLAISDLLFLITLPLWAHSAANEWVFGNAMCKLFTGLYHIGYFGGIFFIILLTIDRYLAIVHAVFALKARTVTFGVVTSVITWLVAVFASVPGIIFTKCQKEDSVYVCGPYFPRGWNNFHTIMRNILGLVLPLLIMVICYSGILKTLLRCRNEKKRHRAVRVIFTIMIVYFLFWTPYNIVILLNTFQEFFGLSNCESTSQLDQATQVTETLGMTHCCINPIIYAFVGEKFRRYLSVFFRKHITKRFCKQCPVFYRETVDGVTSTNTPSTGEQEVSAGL
Protocol: The human CCR-2 chemotaxis assay was conducted with the human monocytic cell line, THP-1. THP-1 cells were first labeled with the fluorescent dye Calcein-AM in phenol red-free, BSA-free RPMI-1640 (pH 7.4) at 37° C. for 30 minutes with gentle mixing every 15 minutes. The labeled cells were then washed and re-suspended at 1×10^5/ml in chemotaxis buffer (phenol red-free RPMI-1640, 0.1% BSA, pH 7.4). The test compound was diluted in chemotaxis buffer such that the final assay concentration ranged from 0.01 nM to 1 μM. The ligand MCP-1 (PeproTech Inc.) was diluted to 20 nM in chemotaxis buffer. To perform the assay, an equal volume of test compound dilutions was mixed with an equal volume of labeled THP-1 cells (Mixture 1), and an equal volume of test compound dilutions was mixed with an equal volume of diluted MCP-1 ligand (Mixture 2). Both mixtures were incubated independently at 37° C. for 10 minutes followed by gentle mixing. MCP-1-induced chemotaxis was then measured in a chemotaxis plate (Becton Dickinson) by placing 50 μl of Mixture 1 in the top chamber and 225 μl of Mixture 2 in the bottom chamber. The plate was covered with a lid and incubated at 37° C. for 30 minutes. 30 minutes later, the plate was read on a CYTOFLUOR®. All conditions were tested in duplicate. […]

[2] = target: T2, human cardiac sodium channel, SCN5A (Homo sapiens, UniProt Q14524); assay: Sodium channel patch clamp; type: cell-based; conditions: read-out: Na+ channel patch clamp (% Inhib.)
T2 construct: expressed in transfected cells; host or cells: HEK-293
T2 sequence (Q14524 whole entry): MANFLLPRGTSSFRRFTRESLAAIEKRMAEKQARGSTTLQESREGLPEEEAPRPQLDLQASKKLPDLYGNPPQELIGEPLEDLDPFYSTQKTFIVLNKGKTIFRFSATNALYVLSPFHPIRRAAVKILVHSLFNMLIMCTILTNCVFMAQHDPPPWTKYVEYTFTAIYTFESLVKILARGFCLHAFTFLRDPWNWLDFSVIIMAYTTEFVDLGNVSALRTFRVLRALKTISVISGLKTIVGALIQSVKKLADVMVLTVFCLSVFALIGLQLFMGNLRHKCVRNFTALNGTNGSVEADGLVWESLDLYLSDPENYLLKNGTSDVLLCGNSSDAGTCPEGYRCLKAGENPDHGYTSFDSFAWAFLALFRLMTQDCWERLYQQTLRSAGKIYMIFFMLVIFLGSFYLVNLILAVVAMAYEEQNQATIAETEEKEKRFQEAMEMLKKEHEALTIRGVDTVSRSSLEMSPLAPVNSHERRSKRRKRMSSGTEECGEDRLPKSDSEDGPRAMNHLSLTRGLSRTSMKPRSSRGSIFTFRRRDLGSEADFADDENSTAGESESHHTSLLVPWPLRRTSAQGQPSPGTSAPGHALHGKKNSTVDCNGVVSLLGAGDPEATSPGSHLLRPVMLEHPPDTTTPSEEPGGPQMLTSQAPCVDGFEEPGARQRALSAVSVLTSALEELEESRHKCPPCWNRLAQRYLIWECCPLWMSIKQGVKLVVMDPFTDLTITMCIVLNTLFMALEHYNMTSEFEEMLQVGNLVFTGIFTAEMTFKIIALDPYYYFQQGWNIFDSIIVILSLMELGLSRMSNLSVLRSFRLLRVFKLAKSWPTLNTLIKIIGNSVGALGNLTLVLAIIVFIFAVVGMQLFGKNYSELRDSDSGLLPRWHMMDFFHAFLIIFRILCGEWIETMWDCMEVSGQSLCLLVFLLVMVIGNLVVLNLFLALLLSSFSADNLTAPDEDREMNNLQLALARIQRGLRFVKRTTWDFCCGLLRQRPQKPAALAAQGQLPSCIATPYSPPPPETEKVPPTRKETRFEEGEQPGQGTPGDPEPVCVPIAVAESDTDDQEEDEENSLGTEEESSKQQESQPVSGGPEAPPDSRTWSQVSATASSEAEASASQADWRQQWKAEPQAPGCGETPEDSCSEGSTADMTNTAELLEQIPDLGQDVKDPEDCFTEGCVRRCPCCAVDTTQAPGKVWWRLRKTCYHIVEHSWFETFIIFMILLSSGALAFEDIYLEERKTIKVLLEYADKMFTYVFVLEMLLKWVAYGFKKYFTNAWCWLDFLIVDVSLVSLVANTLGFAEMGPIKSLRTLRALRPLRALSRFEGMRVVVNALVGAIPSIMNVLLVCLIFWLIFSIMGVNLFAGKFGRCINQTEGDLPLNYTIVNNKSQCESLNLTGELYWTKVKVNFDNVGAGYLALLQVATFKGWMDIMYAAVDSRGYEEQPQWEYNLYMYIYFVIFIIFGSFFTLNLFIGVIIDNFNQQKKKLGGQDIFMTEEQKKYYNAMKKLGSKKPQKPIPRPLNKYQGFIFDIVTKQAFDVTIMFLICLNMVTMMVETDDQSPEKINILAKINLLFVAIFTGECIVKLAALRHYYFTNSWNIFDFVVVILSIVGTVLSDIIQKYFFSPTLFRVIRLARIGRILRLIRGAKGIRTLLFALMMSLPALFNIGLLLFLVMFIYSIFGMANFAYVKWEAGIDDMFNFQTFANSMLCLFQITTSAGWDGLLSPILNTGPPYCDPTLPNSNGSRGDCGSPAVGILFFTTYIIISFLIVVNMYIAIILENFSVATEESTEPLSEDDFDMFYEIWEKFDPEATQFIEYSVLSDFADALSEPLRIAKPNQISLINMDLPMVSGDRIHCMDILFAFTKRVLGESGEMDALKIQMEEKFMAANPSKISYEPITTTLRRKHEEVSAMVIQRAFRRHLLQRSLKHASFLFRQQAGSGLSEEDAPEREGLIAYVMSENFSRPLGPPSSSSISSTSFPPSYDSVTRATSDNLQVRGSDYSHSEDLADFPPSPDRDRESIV
Protocol: Whole-cell patch-clamp was used to directly measure inward sodium currents in HEK-293 cells expressing the human cardiac sodium channel, SCN5A. The compound was tested at a protein-free aqueous buffer. For determining steady state inhibition, sodium currents were elicited every 5 seconds using the following voltage protocol: cells were held at a potential of −90 mV and stepped to −20 mV for 60 ms. Effects were calculated by measuring inhibition of peak current during the test pulse to −20 mV. Rate-dependence of inhibition was assessed by stimulation at frequencies of 1 Hz and 4 Hz.

human CCR-2 [3] = target: T1, human CCR-2; assay: CCR-2 calcium mobilization, THP-1 cells; type: cell-based; conditions: MCP-1 10 nM, read-out: CCR-2 Ca2+ Flux IC50
Protocol: All conditions were tested in duplicate.

CCR-5 [4] = target: T3, CCR-5 (Homo sapiens, UniProt P51681); assay: CCR-5 calcium mobilization, HT1080/CCR-5 cells; type: cell-based; conditions: MIP-1β 50 nM, read-out: CCR-5 ^2+ Flux IC50
T3 construct: human peripheral T cells was used as a source of CCR-5; endogenous in cells; host or cells: human peripheral T cells from donors pre-screened for high CCR-5 expression
T3 sequence (P51681 whole entry): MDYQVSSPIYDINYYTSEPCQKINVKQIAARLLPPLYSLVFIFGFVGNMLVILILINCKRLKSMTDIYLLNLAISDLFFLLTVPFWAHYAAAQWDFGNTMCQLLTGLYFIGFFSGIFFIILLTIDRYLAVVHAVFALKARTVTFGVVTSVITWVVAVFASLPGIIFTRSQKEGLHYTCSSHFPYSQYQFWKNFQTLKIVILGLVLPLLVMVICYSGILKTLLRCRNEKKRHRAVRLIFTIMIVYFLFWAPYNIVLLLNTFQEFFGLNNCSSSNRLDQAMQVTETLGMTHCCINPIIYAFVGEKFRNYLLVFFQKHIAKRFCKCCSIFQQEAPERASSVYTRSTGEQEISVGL

CCR-5 [5] = target: T3, CCR-5; assay: CCR-5 whole blood CD11b upregulation; type: cell-based; conditions: MIP-1β 50 nM
Protocol: Similar procedure to the CCR-2 whole blood CD11b upregulation procedure set forth above was adopted except that MIP-1β (50 nM) was used as the ligand.

[6] = Single-dose pharmacokinetics in rats; conditions: male, Sprague-Dawley, rat
Protocol: Male Sprague-Dawley rats (250-300 g) were used for the pharmacokinetic studies. Rats were fasted overnight prior to PO dosing and fed 4 h post dose. Blood samples (˜0.3 mL) were collected from the jugular vein into K2EDTA-containing tubes and then centrifuged at 4° C. (1500-2000×g) to obtain plasma. […] Serial blood samples were obtained at 0.17 (for IV only), 0.25, 0.5, 0.75, 1, 2, 4, 6, 8, and 24 h post dose. Plasma samples, obtained by centrifugation at 4° C. (1500-2000×g), were stored at −20° C. until analysis by LC/MS/MS.
(§1) The pharmacokinetic parameters were obtained by non-compartmental analysis of plasma concentration vs. time data (Kinetica software, Version 4.2, InnaPhase Corporation, Philadelphia, Pa.). The peak concentration (Cmax) and time for Cmax were recorded directly from experimental observations. The area under the curve from time zero to the last sampling time (AUC(0-T)) was calculated using a combination of linear and log trapezoidal summations. The total plasma clearance (CLTp), steady-state volume of distribution (Vss), apparent elimination half-life (T½) and mean residence time (MRT) were estimated after IV administration. Estimations of T½ was made using a minimum of 3 time points with quantifiable concentrations. The absolute oral bioavailability (F) was estimated as the ratio of dose-normalized AUC values following oral and IV doses.

[7] = Single-dose pharmacokinetics in monkeys; conditions: male, cynomolgus monkey, 1 mg/kg
Protocol: The pharmacokinetics of various test compounds were evaluated in male cynomolgus monkeys in a crossover-design. Monkeys were fasted overnight prior to PO dosing and fed 4 h post dose. A group of 1-3 animals (3 to 5 kg) received the compound by IV infusion (over 10 min) via a femoral vein and by oral gavage, with a 1-week washout between treatments. Serial blood samples (˜0.3 mL) were collected from a femoral artery at 0.17 (IV only), 0.25, 0.5, 0.75, 1, 2, 4, 6, 8, and 24 h post dose, and centrifuged at 4° C. (1500-2000×g) to obtain plasma. Samples were stored at −20° C. until analysis by LC/MS/MS.
as §1

human CCR-2 [8] = target: T1, human CCR-2; assay: Human CCR-2 binding assay with hPBMCs, 125I-human MCP-1 tracer; design: hPBMCs were isolated from human leukopak; host or cells: human peripheral blood mononuclear cells
Protocol: See also: Yoshimura et al., J. Immunol., 145:292 (1990). […] This was followed by adding 25 μl of Microscint 20 into each well. The plate was sealed and counted on the Trilux for 1 minute. […] All conditions were tested in duplicate.

human CCR-2 [9] = target: T1, human CCR-2; assay: 125I-mouse MCP-1 binding to human CCR-2-expressing cells (hPBMCs); design: hPBMCs were isolated from human leukopak; host or cells: human peripheral blood mononuclear cells; conditions: read-out: in vitro IC50 for inhibition of 125I-mouse MCP-1 binding to human CCR-2-expressing cells (hPBMCs)

`CC(=O)N[C@@H]1C[C@H](NC(C)(C)C)CC[C@@H]1N1CC[C@H](Nc2ncnc3cc(C(C)(C)C)nn23)C1=O` [Example 1, N-((1R,2 S,5R)-5-(tert-Butylamino)-2-((S)-3-(7-tert-butylpyrazolo[1,5-a][1,3,5]triazin-4-ylamino)-2-oxopyrrolidin-1-yl)cyclohexyl)acetamide] showed an IC50 (human CCR-2 [1]) of 0.8 ± 0.8 nM, an inhibition at 10000 nM ([2]; 10,000 nM) of 15 to 20% and an inhibition at 30000 nM ([2]; 30,000 nM) of 13 to 16%. It also gave an IC50 (human CCR-2 [3]) of 2.9 ± 1.5 nM, an IC50 (CCR-5 [4]) of 2 ± 1.4 nM and an IC50 (CCR-5 [5]) of 5.7 nM. It also gave a clearance ([6]; in vivo, 2 mg/kg) of 49.7 mL/min/kg, a bioavailability ([6]; in vivo, 10 mg/kg) of 94% and an AUC ([6]; plasma, oral, 10 mg/kg) of 6.5 µM·h. It also gave a bioavailability ([7]; in vivo) of 63%, a clearance ([7]; plasma, intravenous) of 16.4 mL/min/kg and an AUC ([7]; plasma, oral) of 1.3 µM·h. For the same molecule, the Ki (human CCR-2 [8]; average, read-out: average Ki for binding to hCCR-2) was 2 nM, the IC50 (human CCR-2 [8]; hPBMCs, 125I-human MCP-1) was 6.2 ± 2.7 nM and the IC50 (human CCR-2 [9]) was 5.8 ± 2.3 nM.

From US8618101B2, “N-((1R,2S,5R)-5-(tert-butylamino)-2-((S)-3-(7-tert-butylpyrazolo[1,5-a][1,3,5]triazin-4-ylamino)-2-oxopyrrolidin-1-yl)cyclohexyl)acetamide, a dual modulator of chemokine receptor activity, crystalline forms and processes” (Bristol-Myers Squibb Company, priority 2009, dated 2013)
